Reference: patent US11753408B2, “Compounds and method for blocking transmission of malarial parasite” (The United States of America, as represented by the …, priority 2016, dated 2023)
Read-outs that look alike come from different tables or passages of the source.

How the values were obtained:
[1] = system: Stage III-V gametocytes (blood stage P. falciparum parasites); assay: In vitro drug activity on gametocytes (AlamarBlue viability assay); type: cell-based, Plasmodium falciparum; settings: for EC50: read-out: Gametocyte EC50
Description: Cell culture. Asexual parasites of P. falciparum strain 3D7 were cultured as described previously [Trager W, et al., Journal of Parasitology 2005, 91: 484-486], Stage III-V gametocytes were selected and enriched with 3-day treatment with 50 mM N-acetylglucosamine (NAG) and the following Percoll density gradient centrifugation after gametocyte production [Tanaka T Q, et al., Molecular and Biochemical Parasitology, 2011, 111: 160-163], Gametocytes of HB3 and Dd2 strains were produced and then set up for assay in a similar process. HepG2 cells (ATCC, cat. no. 77400) were cultured in 175-cm^2 tissue culture flasks with 30 ml growth medium at 37° C. in a 5% CO2 humidified atmosphere. Growth medium was made with Dulbecco's Modified Eagle Medium with 10% fetal bovine serum (FBS). Growth medium was replaced every other day and cells were passed at 75% confluence.
Compound screening experiments were performed as previously described [Tanaka T Q et al., Molecular and Biochemical Parasitology, 2013, 3188: 20-25], Briefly, 2.5 μl/well incomplete medium was dispensed into each well of 1,536-well plates using the Multidrop Combi followed by 23 nl compound transferring using the NX-TR Pintool (WAKO Scientific Solutions, San Diego, Calif.). 2.5 μl/well of gametocytes was dispensed with a seeding density of 20,000 cells/well using the Multidrop Combi. The assay plates were incubated for 72 h at 37° C. with 5% CO2. After addition of 5 μl/well of 2× AlamarBlue dye (Life Technologies, cat. no. DALI 100), the plates were incubated for 24 h at 37° C. with 5% CO2 and were read in a fluorescence detection mode (Ex=525 nm, Em=598 nm) on a ViewLux plate reader (PerkinElmer).
Stage III-V gametocytes (blood stage P. falciparum parasites) were enriched with treatment with 50 mM N-acetylglucosamine (NAG) and Percoll density gradient centrifugation as described previously^1. Briefly, 2.5 μl/well incomplete medium was dispensed into each well of 1,536-well plates using the Multidrop Combi followed by 23 nl compound transfer using the NX-TR Pintool (WAKO Scientific Solutions, San Diego, Calif.). Then, 2.5 μl/well of gametocytes was dispensed with a seeding density of 20,000 cells/well using the Multidrop Combi. The assay plates were incubated for 72 h at 37° C. with 5% CO2. After addition of 5 μl/well of 2× AlamarBlue dye (Life Technologies, cat. no. DALI 100), the plates were incubated for 24 h at 37° C. with 5% CO2 and then were read in a fluorescence detection mode (Ex=525 nm, Em=598 nm) on a ViewLux plate reader (PerkinElmer).

[2] = system: Asexual parasites of P. falciparum strain 3D7; assay: In vitro drug activity on asexual parasites (SYBR Green assay); type: cell-based, Plasmodium falciparum
Method in brief: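 SYBR Green I fluorescence (ex 490, em 520 nm) was read after freeze-thaw lysis and 30 min staining at room temperature. Before that, drug-treated cultures (0.5% parasitemia, 2% hematocrit, DMSO ≤0.5%) were incubated 72 h, in duplicate.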

mTOR = mTOR (Homo sapiens, UniProt P42345); assay: mTOR activity (no method described); type: biochemical
Solubility at pH 7.4 = type: physicochemical
[3] = Microsomal stability (rat); type: in vitro ADME; settings: rat microsomes
[4] = P. falciparum stage III-V gametocytes, 72 h incubation, AlamarBlue
[5] = P. falciparum 3D7 asexual parasites, 72 h, SYBR Green

Row | EC50 [2] [nM] | mTOR (mTOR) [nM] | EC50 [2, 5] [nM] | Sol @ pH 7.4 (ug/mL) (Solubility at pH 7.4) | Microsomal Stability (rat) T1/2 [3] [min] | Sol @ pH 7.4 (Solubility at pH 7.4) [ug/mL] | SMILES | EC50 [1] [nM] | EC50 [1, 4] [nM] | Gametocyte EC50 [1]
1 | 14.2 | 584.2 |  |  |  |  | Cn1c(=O)n(-c2ccc(N3CCNCC3)c(C#N)c2)c2c3cc(-c4ccc(F)cc4)ccc3ncc21 [Compound 414] | 38.7 |  | 
2 |  |  | 12.3 | 10 | >30.00 |  | Nc1ccc(-c2ccc3ncc4ccc(=O)n(-c5ccc6c(c5)CCC(=O)N6)c4c3c2)cn1 [Compound 391] |  | 56.3 | 
3 |  |  | 2020 | >77.0 | >30.0 |  | CN(C)Cc1ccc(-c2ccc3ncc4ccc(=O)n(-c5ccc6c(c5)CN(CC(=O)O)C6=O)c4c3c2)cc1 [Compound 355] |  | 28800 | 
4 |  |  | 29 | 0 | 12.8 |  | O=C1NCCc2cc(-n3c(=O)ccc4cnc5ccc(-c6ccc(Cl)cc6)cc5c43)ccc21 [Compound 367] |  | 105 | 
5 | 269 | 630.3 |  |  |  |  | Cn1c(=O)n(-c2cccc(C#N)c2)c2c3cc(-c4ccc5[nH]cnc5c4)ccc3ncc21 [Compound 445] | 735 |  | 
6 |  |  | 25 | <0.10 | >30.00 |  | O=C1CCc2cc(-n3c(=O)ccc4cnc5ccc(-c6ccc(Cl)cc6)cc5c43)ccc2N1 [Compound 356] |  | 65.5 | 
7 |  |  | 23.4 | 0.06 | 14.9 |  | CN1C(=O)CCc2cc(-n3c(=O)ccc4cnc5ccc(-c6ccc(Cl)cc6)cc5c43)ccc21 [Compound 359] |  | 130 | 
8 | 21.4 | 15870 |  |  |  |  | Cc1cc(N2CCNCC2)c(C#N)cc1-n1c(=O)n(C)c2cnc3ccc(-c4ccc(Cl)cc4)cc3c21 [Compound 415] | 18.6 |  | 
9 | 45000 |  |  |  | 11.3 | <1.0 | N#Cc1ccc(-n2c(=O)[nH]c3cnc4ccc(-c5ccc(Cl)cc5)cc4c32)cc1 [Compound 434] |  |  | Inactive
10 | 39.6 | 930.6 |  |  |  |  | Cc1cc(N2CCNCC2)c(C#N)cc1-n1c(=O)n(C)c2cnc3ccc(-c4ccc(F)cc4)cc3c21 [Compound 416] | 21.6 |  | 
11 | 449 | 100000 |  |  |  |  | Cn1c(=O)n(-c2cccc(C#N)c2)c2c3cc(-c4ccc(C#N)cc4)ccc3ncc21 [Compound 442] | 1990 |  | 
12 |  |  | 589 | 0 | >30.0 |  | O=C1c2ccc(-n3c(=O)ccc4cnc5ccc(-c6ccc(Cl)cc6)cc5c43)cc2CN1C1CC1 [Compound 353] |  | 2510 | 
13 |  |  |  | 0 |  |  | NCCc1ccc(-c2ccc3ncc4ccc(=O)n(-c5ccc6c(c5)CNC6=O)c4c3c2)cc1 [Compound 377] |  | 384 | 
14 |  |  | 115 | 0 |  |  | O=C1Cc2ccc(-n3c(=O)ccc4cnc5ccc(-c6ccc(Cl)cc6)cc5c43)cc2N1 [Compound 376] |  | 199 | 

The remaining lines, values behind:

Row | SMILES | EC50 [2] [nM] | mTOR (mTOR) [nM] | EC50 [2, 5] [nM] | Sol @ pH 7.4 (ug/mL) (Solubility at pH 7.4) | Microsomal Stability (rat) T1/2 [3] [min] | Sol @ pH 7.4 (Solubility at pH 7.4) [ug/mL] | EC50 [1] [nM] | EC50 [1, 4] [nM] | Gametocyte EC50 [1]
15 | NC(=O)c1cccc(-n2c(=O)ccc3cnc4ccc(-c5ccc(N)nc5)cc4c32)c1 [Compound 333] | 239 | 213.5 |  |  |  |  | 411 |  | 
16 | O=C(c1ccc(-n2c(=O)ccc3cnc4ccc(-c5ccccc5)cc4c32)cc1)N1CCOCC1 [Compound 125] | 8.08 | 506.1 |  |  |  |  | 39.8 |  | 
17 | COc1ccc(C#N)cc1-n1c(=O)ccc2cnc3ccc(-c4ccc(F)cc4)cc3c21 [Compound 13] |  |  | 80.4 | 0 |  |  |  | 135 | 
18 | CN(C)Cc1ccc(-c2ccc3ncc4ccc(=O)n(-c5ccc([S+](C)[O-])cc5)c4c3c2)cc1 (centres unmarked) [Compound 54] |  |  | 146 | >69.00 | 51.7 |  |  | 393 | 
19 | CN(C)Cc1ccc(-c2ccc3ncc4ccc(=O)n(-c5ccc(S(C)(=O)=O)c(N6CCOCC6)c5)c4c3c2)cc1 [Compound 62] |  |  | 558 | >84.00 | >30.00 |  |  | 1320 | 
20 | COC(=O)CN1Cc2cc(-n3c(=O)ccc4cnc5ccc(-c6ccc(Cl)cc6)cc5c43)ccc2C1=O [Compound 345] |  |  |  |  | <1.0 |  |  | 3830 | 
21 | CS(=O)(=O)c1ccc(-n2c(=O)ccc3cnc4ccc(-c5ccc(Cl)c(O)c5)cc4c32)cc1 [Compound 26] |  |  | 37.8 | 1.2 | >30.0 |  |  | 178 | 
22 | CN(C)CCc1ccc(-c2ccc3ncc4ccc(=O)n(-c5ccc(C(=O)N6CCOCC6)cc5)c4c3c2)cc1 [Compound 186] | 207 | 12440 |  |  |  |  | 573 |  | 
23 | N#Cc1ccc(-n2c(=O)ccc3cnc4ccc(-c5ccc(N)nc5)cc4c32)cc1 [Compound 22] |  |  | 34.6 | <1.0 | >30.0 |  |  | 115 | 
24 | O=C(c1ccc(-n2c(=O)ccc3cnc4ccc(-c5ccc(Cl)cc5)cc4c32)c(Cl)c1)N1CCOCC1 [Compound 159] | 91.6 | 3523 |  |  |  |  | 320 |  | 
25 | CN(C)Cc1ccc(-c2ccc3ncc4ccc(=O)n(-c5ccc6c(c5)CC(=O)N6)c4c3c2)cc1 [Compound 350] |  |  | 546 | >68.0 |  |  |  | 1000 | 
26 | O=c1ccc2cnc3ccc(-c4ccc(Cl)cc4)cc3c2n1-c1ccc(S(=O)(=O)NC2CC2)cc1 [Compound 46] |  |  | 62.5 | <1.0 | 8.3 |  |  | 260 | 
27 | Cc1c(C#N)cccc1-n1c(=O)ccc2cnc3ccc(-c4ccc(CN(C)C)cc4)cc3c21 [Compound 10] |  |  | 72.2 | >66 | 18 |  |  | 469 | 
28 | N#Cc1cc(-n2c(=O)ccc3cnc4ccc(-c5ccc(Cl)cc5)cc4c32)ccc1N1CCNCC1 [Compound 16] |  |  | 23.7 |  |  |  |  | 69.4 | 
29 | CCNS(=O)(=O)c1ccc(-n2c(=O)ccc3cnc4ccc(-c5ccc(Cl)cc5)cc4c32)cc1 [Compound 41] |  |  | 23.1 | <1.0 | 6.3 |  |  | 89.4 | 
30 | Cc1ccc(C#N)cc1-n1c(=O)ccc2cnc3ccc(-c4ccc(CN(C)C)cc4)cc3c21 [Compound 7] |  |  | 13.1 | >66.00 |  |  |  | 25.1 | 
31 | Nc1ccc(-c2ccc3ncc4ccc(=O)n(-c5ccc(S(N)(=O)=O)cc5)c4c3c2)cn1 [Compound 78] |  |  | 6.12 | <1.0 | >30.0 |  |  | 11.6 | 
32 | CS(=O)(=O)c1ccc(-n2c(=O)ccc3cnc4ccc(-c5ccc(F)cc5)cc4c32)cc1 [Compound 29] |  |  | 19.8 | <1.0 | >30.0 |  |  | 88.5 | 
33 | N#Cc1cc(-n2c(=O)ccc3cnc4ccc(-c5ccc(Cl)cc5)cc4c32)ccc1N1CCOCC1 [Compound 6] |  |  |  | 0.02 |  |  |  | 102 | 
34 | CCN(CC)S(=O)(=O)c1ccc(-n2c(=O)ccc3cnc4ccc(-c5ccc(Cl)cc5)cc4c32)cc1 [Compound 39] |  |  | 414 | <1.0 | 1.7 |  |  | 426 | 
35 | CN1Cc2cc(-n3c(=O)ccc4cnc5ccc(-c6ccc(Cl)cc6)cc5c43)ccc2C1=O [Compound 341] |  |  | 69.1 | <1.0 | 12.4 |  |  | 83 | 
36 | NC1(c2ccc(-c3ccc4ncc5ccc(=O)n(-c6ccc(C(=O)N7CCOCC7)cc6)c5c4c3)cc2)CC1 [Compound 178] | 445 | 5312 |  |  |  |  | 918 |  | 
